Experimental data taken from US7531195B2, “Schisandrin B preparation” (priority 2005, dated 2009).

Key:
H9c2 cells [1] = assay: Cellular GSH level in H9c2 cells, time course, with or without xanthine/xanthine oxidase (X/XO) challenge; type: cell-based, rat; conditions: 6.25 μM
Description: (§1) H9c2 cells, a permanent cell line derived from cardiac myoblasts of rat embryo, have early been characterized as a suitable model of myocardial cells [Hescheler et al. 1991]. H9c2 cells were cultured as monolayers in Dulbecco's modified Eagle's medium (GIBCO BRL) supplemented with 10% (v/v) fetal bovine serum. The medium contained glucose (4.5 g/L) and glutamine (4.5 mM), supplemented with NaHCO3 (17 mM), penicillin (100 IU/ml), and streptomycin (100 μg/ml). Cells were grown under an atmosphere of 5% CO2 in air at 37° C. The medium was replaced by fresh medium every 2 or 3 days. A stock of cells was grown in a 75 cm culture flask and split before confluence at a subcultivation ratio of 1:10. Cells used for experiments were seeded at a density of 3.75×10^4 cells/well on a 12-well culture plate, and the cells were grown for 24 h to about 80% confluence prior to drug treatment.
(§2) Cultured H9c2 cells were treated with (−) Schisandrin B, (+) Schisandrin B or (±) Schisandrin B (dissolved in DMSO) at 6.25 μM (0.2% DMSO final concentration) for increasing periods of time. Control cells were given the vehicle (i.e. DMSO) only. Immediately following the drug or vehicle pretreatment, the cells were challenged with a mixture of xanthine (X) (0.1 mM) and xanthine oxidase (XO) (0.4 U/ml) for 4 h. The control cells were treated with the medium only. After the X/XO challenge, the medium was taken for the measurement of LDH activity, a biochemical index of cellular injury.
The cells were washed twice with 0.5 ml cold phosphate-buffered saline (PBS), An aliquot (200 μl) of 3% sulfonsalicyclic acid was then added, and the mixture was incubate at 4° C. for 10 min. After centrifuging at 300 g for 15 min at 4° C., the supernatant was used for GSH measurement by an enzymatic method of Griffith (1980).

H9c2 cells [2] = assay: Xanthine/xanthine oxidase-induced cytotoxicity (LDH leakage) in H9c2 cells; type: cell-based, rat; conditions: 6.25 μM
Description: as §1, §2

Hsp25 = assay: Tissue Hsp25 level in young female rats (Western blot); type: in vivo, rat; conditions: 10 mg/kg daily, 15 days
Description: Female Sprague-Dawley rats (8 weeks old) were maintained under a 12-h dark/light cycle at about 22° C. and allowed food and water ad libitum. Drug treated animals received a daily bolus dose of (−) Schisandrin B, α-lipoic acid (α-LA) or α-tocopherol (α-Toc) at 10, 5 and 70 mg/kg, respectively, for 15 days. The dosages were determined with reference to the equivalent amount of crude herb prescribed for human or the daily recommended intake in health supplements. The control animals received olive oil only. Twenty-four hours after the last dose, the pentobarbital-anesthetized animals were sacrificed by cardiac excision, and brain. heart, liver and skeletal muscle tissues were obtained.
Hsp25 and Hsp70 levels was estimated by Western blot analysis using specific antibodies (anti-Hsp25, catalog #SPA-801; anti-Hsp70, catalog #SPA-812) from StressGen (Vancouver, BC, Canada) following SDS-PAGE analysis of the nuclear-free tissue homogenates, using a separating gel of 10% acrylamide as described in Ip et. al. (2001). Hsp25/27 and Hsp70 (human recombinant proteins from StressGen) and actin (bovine muscle from Sigma) were used as markers for reference. […] All immuno-blots were analyzed by densitometry, and the amounts (arbitrary units) of Hsp were normalized with reference to actin levels (arbitrary units) in the sample.

[3] = system: mitochondria of brain, heart, liver and skeletal muscle; assay: Mitochondrial reactive oxidant species (ROS) generation in tissues of young adult and middle-aged rats; type: in vivo, rat
Description: Young adult (8-10 week-old) and middle-aged (12-14 month-old retired breeder) female Sprague-Dawley rats were maintained under a 12-h dark/light cycle at about 22° C. and allowed food and water ad libitum. Experimental protocols were approved by the Research Practice Committee at the Hong Kong University of Science & Technology, Hong Kong. Animals were randomly divided into groups, with 5 animals in each. In the treatment groups, rats were intragastrically administered with Sch B (dissolved/suspended in olive oil) at a daily dose of 10 mg/kg for 15 days. The daily dose is approximated to 1.14 mg/kg for humans after adjusting the inter-species difference in drug distribution in the body. Untreated control animals received olive oil only. Twenty-four hours after the last dosing, animals were sacrificed by decapitation and the whole brain, heart ventricular, liver and skeletal muscle (hind limb) tissues were excised and subjected to biochemical analysis. To investigate the effect of (−) Sch B on myocardial ischemia-reperfusion […] injury, rats were intragastrically administered with (−) Sch B at a daily dose of 10 mg/kg for 35 days. Untreated control animals received olive oil only. […]
Mitochondrial pellets were prepared from tissue homogenates by centrifugation at 800×g at 4° C. for 30 min, with purity being determined by measuring the relative specific activities of succinate dehydrogenase and lactate dehydrogenase (LDH) in the supernatant and mitochondrial pellet. […] The protein concentration of mitochondrial fractions was determined using a Bio-Rad protein assay kit.
An aliquot (50 μl) of mitochondrial fraction (50 μg protein/ml) and 60 μl of DCFDA solution (17.5 μM in incubation buffer) were added into wells of a black micro-titer plate. […] Fluorescence intensity (excitation: 485 nm and emission: 535 nm) of the reaction mixture was monitored every 5 min for 60 min. The mitochondrial ROS generation was reflected by the fluorescence intensity of the sample after subtracting the value of a blank sample containing incubation buffer, substrate solution and DCFDA. […]

[4] = X/XO challenge, 0 h post-dosing (unpretreated control)
[5] = X/XO challenge, 4 h post-dosing
[6] = X/XO challenge, 8 h post-dosing
[7] = X/XO challenge, 16 h post-dosing
[8] = X/XO challenge, 24 h post-dosing
[9] = X/XO challenge, 48 h post-dosing

COc1cc2c(c(OC)c1OC)-c1c(cc3c(c1OC)OCO3)CC(C)C(C)C2 (single isomer, unassigned; (-)) [(−) Sch B, (−) Schisandrin B]
stimulatory effect on cellular GSH (H9c2 cells [1]; 48 h post-dosing): no detectable stimulatory effect
time of maximum stimulation of cellular GSH (H9c2 cells [1]; post-dosing): 16 h
GSH Level (H9c2 cells [1]; NON-X/XO, 0 h post-dosing (unpretreated control)): 35.8 ± 1.04 nmol/mg protein
GSH Level (H9c2 cells [1]; NON-X/XO, 4 h post-dosing): 46.8 ± 0.88 nmol/mg protein
GSH Level (H9c2 cells [1]; NON-X/XO, 8 h post-dosing): 54.2 ± 1.42 nmol/mg protein
GSH Level (H9c2 cells [1]; NON-X/XO, 16 h post-dosing): 92.6 ± 1.29 nmol/mg protein
GSH Level, percent increase vs unpretreated control (0 h) (H9c2 cells [1]; NON-X/XO, 16 h post-dosing): (158%)
GSH Level (H9c2 cells [1]; NON-X/XO, 24 h post-dosing): 79.0 ± 1.48 nmol/mg protein
GSH Level (H9c2 cells [1]; NON-X/XO, 48 h post-dosing): 54.7 ± 3.58 nmol/mg protein
GSH Level (H9c2 cells [1]; [4]): 15.9 ± 0.45 nmol/mg protein
GSH Level (H9c2 cells [1]; [5]): 18.3 ± 0.57 nmol/mg protein
GSH Level (H9c2 cells [1]; [6]): 20.7 ± 0.61 nmol/mg protein
GSH Level (H9c2 cells [1]; [7]): 25.1 ± 1.50 nmol/mg protein
GSH Level, percent increase vs unpretreated control (0 h) (H9c2 cells [1]; [7]): (57%)
GSH Level (H9c2 cells [1]; [8]): 17.8 ± 0.59 nmol/mg protein
GSH Level (H9c2 cells [1]; [9]): 16.7 ± 0.63 nmol/mg protein
time of maximum extent of protection against X/XO-induced cell injury (LDH leakage) (H9c2 cells [2]; post-dosing): 16 h
LDH Leakage (H9c2 cells [2]; [4]): 34.8 ± 1.13 U/L
LDH Leakage (H9c2 cells [2]; [5]): 26.0 ± 0.92 U/L
LDH Leakage (H9c2 cells [2]; [6]): 22.0 ± 0.63 U/L
LDH Leakage (H9c2 cells [2]; [7]): 14.2 ± 0.35 U/L
LDH Leakage, percent protection vs unpretreated control (0 h) (H9c2 cells [2]; [7]): (78%)
LDH Leakage (H9c2 cells [2]; [8]): 17.5 ± 0.85 U/L
LDH Leakage (H9c2 cells [2]; [9]): 26.3 ± 0.41 U/L
changes in Hsp25 level in all tissues (Hsp25): No detectable changes
Heat Shock Protein Level, Hsp25 (Hsp25; BRAIN): 0.16 ± 0.01 AU
Heat Shock Protein Level, Hsp25 (Hsp25; HEART): 0.77 ± 0.05 AU
Heat Shock Protein Level, Hsp25 (Hsp25; LIVER): 0.41 ± 0.02 AU
Heat Shock Protein Level, Hsp25 (Hsp25; SKELETAL MUSCLE): 0.59 ± 0.03 AU
decrease of mitochondrial ROS generation ([3]; middle-aged rats, 10 mg/kg/day x 15, range among tissues): 11-23%
difference in liver mitochondrial ROS generation between control and treated ([3]; middle-aged rats, liver): not statistically significant
suppression of mitochondrial ROS generation ([3]; young adult rats, 10 mg/kg/day x 15, range among all tissues): 16-38%
